Data as given in paper PMC5411959, “Potential Antiosteoporotic Natural Product Lead Compounds That Inhibit 17β-Hydroxysteroid Dehydrogenase Type 2” (Journal of Natural Products, 2017).
“And” between values parts separate entries of the source, which are not always exact repeats. Identical values can stand only once. Like-named read-outs stand apart in the source and are kept apart here.

Columns and labels:
human 17β-HSD2 = target: T1, human 17β-HSD2 (Homo sapiens, UniProt P37059); assay: 17β-HSD2 activity assay using lysates of HEK-293 cells expressing the recombinant human enzyme; format: biochemical; details: for remaining activity at 20 µM: read-out: 17β-HSD2 remaining activity at 20 μM (% of control); for 17β-HSD2 inhibition (in words): tested at 20 μM; for IC50: HEK-293 lysates, 200 nM estradiol, 500 μM NAD+, 10 min 37 °C;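 on all read-outs here: conversion of tritium-labelled estradiol (200 nM, with 500 µM NAD+, 10 min) quantified after TLC separation by scintillation counting, at least three independent measurements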
T1 construct: expressed in transfected cells; host or cells: HEK-293 (ATCC), used as cell lysate
T1 sequence (P37059 1-387): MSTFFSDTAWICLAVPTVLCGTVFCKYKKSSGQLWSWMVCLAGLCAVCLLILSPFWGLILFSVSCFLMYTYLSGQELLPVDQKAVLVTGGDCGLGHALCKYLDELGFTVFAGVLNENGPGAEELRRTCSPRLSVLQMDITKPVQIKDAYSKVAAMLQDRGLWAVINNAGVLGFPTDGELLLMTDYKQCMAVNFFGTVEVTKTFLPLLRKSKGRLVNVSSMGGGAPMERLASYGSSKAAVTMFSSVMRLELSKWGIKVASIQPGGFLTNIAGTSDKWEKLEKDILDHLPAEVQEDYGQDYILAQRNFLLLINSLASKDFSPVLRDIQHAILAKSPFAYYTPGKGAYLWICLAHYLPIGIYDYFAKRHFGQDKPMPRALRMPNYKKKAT

human 17β-HSD1 = target: T2, human 17β-HSD1 (Homo sapiens, UniProt P14061); assay: 17β-HSD1 activity assay using lysates of HEK-293 cells expressing the recombinant human enzyme; format: biochemical; details: for IC50: HEK-293 lysates, 200 nM estrone, 500 μM NADPH; for 17β-HSD1 inhibition (in words; n.i. = no inhibition): screened at 20 μM
T2 construct: expressed in transfected cells; host or cells: HEK-293 (ATCC), used as cell lysate
T2 sequence (P14061 1-328): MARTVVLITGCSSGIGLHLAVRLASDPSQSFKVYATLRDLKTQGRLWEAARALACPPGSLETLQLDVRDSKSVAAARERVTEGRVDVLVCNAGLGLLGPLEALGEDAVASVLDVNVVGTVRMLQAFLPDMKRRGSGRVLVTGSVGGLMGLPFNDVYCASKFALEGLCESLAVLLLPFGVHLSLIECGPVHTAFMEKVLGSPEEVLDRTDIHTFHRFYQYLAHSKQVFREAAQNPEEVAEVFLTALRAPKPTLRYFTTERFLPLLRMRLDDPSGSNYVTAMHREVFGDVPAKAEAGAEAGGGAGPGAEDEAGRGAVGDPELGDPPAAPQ

17β-HSD2 = test system: 17β-HSD2; design: method as in PMID 18533708; details: cited from earlier work; for activity: 40 μM, read-out: inhibition of 17β-HSD2: % residual activity at 40 μM; for activity / IC50: mean ± SD; for classification (17β-HSD2 inhibition): flavonoid SAR model, Table 4; for IC50: read-out: inhibition of 17β-HSD2: IC50 (μM)
[1] = 20 μM compound, % of vehicle control

## CCN(CC)CCCC(C)Nc1ccnc2cc(Cl)ccc12 (racemic) [S17, (±)-chloroquine, reference compound]
Human 17β-HSD2; [1]
  17β-HSD2 remaining activity at 20 μM (% of control): 111 ± 13%

## CCOC(=O)c1cc(O)c(O)c(O)c1 [S1, ethyl gallate]
Human 17β-HSD2; [1]
  remaining activity at 20 µM: 60 ± 6%

## COc1cc(CCC(C)=O)ccc1O [S2, vanillyl acetone]
Human 17β-HSD2; [1]
  17β-HSD2 remaining activity at 20 μM (% of control): 106 ± 9%

## CCCCOC(=O)c1cc(O)c(O)c(O)c1 [S3, butyl gallate]
Human 17β-HSD2; [1]
  remaining activity at 20 µM: 56 ± 5%

## C=CCc1ccc(O)c(OC)c1 [S4, eugenol]
Human 17β-HSD2
  remaining activity at 20 µM: 94 ± 11%

## COc1cc(/C=C/C(=O)O)ccc1O [S5, ferulic acid]
Human 17β-HSD2; [1]
  17β-HSD2 remaining activity at 20 μM (% of control): 79 ± 10%

## COc1cc(CNC(=O)CCCC/C=C/C(C)C)ccc1O [S6, capsaicin]
Human 17β-HSD2
  remaining activity at 20 µM: 53 ± 6%

## NC(=O)c1cccnc1 [S7, nicotinamide]
Human 17β-HSD2; [1]
  remaining activity at 20 µM: 106 ± 12%

## O=C(/C=C/c1ccc(O)c(O)c1)O[C@@H]1C[C@](O)(C(=O)O)C[C@@H](O)[C@H]1O [S8, chlorogenic acid]
Human 17β-HSD2; [1]
  remaining activity at 20 µM: 97 ± 10%

## O=C(O)/C=C/c1ccc(O)c(O)c1 [S9, caffeic acid]
Human 17β-HSD2; [1]
  remaining activity at 20 µM: 58 ± 13%

## COc1cc(C)cc2oc3ccc(O)c(C(=O)O)c3c(=O)c12 [S10, 2-hydroxy-8-methoxy-6-methyl-9-oxo-9H-xanthene-1-carboxylic acid]
Human 17β-HSD2; [1]
  17β-HSD2 remaining activity at 20 μM (% of control): 64 ± 5%

## NC(=O)Cc1ccc(O)c(Cl)c1 [S11, 2-(3-chloro-4-hydroxyphenyl)acetamide]
Human 17β-HSD2; [1]
  remaining activity at 20 µM: 80 ± 10%
Human 17β-HSD2
  17β-HSD2 inhibition (in words): did not inhibit

## O=C(O)Cc1ccc(O)c(Cl)c1 [S12, 2-(3-chloro-4-hydroxyphenyl)acetic acid]
Human 17β-HSD2
  remaining activity at 20 µM: 88 ± 7%

## COc1cc(/C=C2\N=C(N)NC2=O)ccc1O [S14, polyandrocarpamine A]
Human 17β-HSD2; [1]
  remaining activity at 20 µM: 101 ± 7%

## O=C(O)Cc1ccc(O)cc1 [S15, 2-(4-hydroxyphenyl)acetic acid]
Human 17β-HSD2; [1]
  remaining activity at 20 µM: 108 ± 5%
Human 17β-HSD2
  17β-HSD2 inhibition (in words): did not inhibit

## NC(=O)Cc1ccc(O)cc1 [S16, 2-(4-hydroxyphenyl)acetamide]
Human 17β-HSD2; [1]
  remaining activity at 20 µM: 110 ± 10%
Human 17β-HSD2
  17β-HSD2 inhibition (in words): did not inhibit

## COC(=O)c1cc2c(c(O)c1OC)[C@H](C)C[C@@H](O)[C@H]2[C@@H](C)CCC=C(C)C [S18, methyl (5R,7R,8S)-4,7-dihydroxy-3-methoxy-5-methyl-8-((S)-6-methylhept-5-en-2-yl)-5,6,7,8-tetrahydronaphthalene-2-carboxylate]
Human 17β-HSD2; [1]
  17β-HSD2 remaining activity at 20 μM (% of control): 59 ± 7%

## CC(Cc1ccc(O)c(O)c1)C(C)Cc1ccc(O)c(O)c1 (stereo not drawn) [compound 1, nordihydroguaiaretic acid]
Human 17β-HSD2
  IC50: 0.38 ± 0.04 µM
Human 17β-HSD1
  times more active toward 17β-HSD2 than 17β-HSD1: 15 times
  IC50: 5.5 ± 1.3 µM
Human 17β-HSD1; 17β-HSD1 versus 17β-HSD2
  selectivity factor: 15
Human 17β-HSD1; 17β-HSD2 over 17β-HSD1
  selectivity over 17β-HSD1: ≥ 8 fold

## CC1(C)CC[C@]2(C(=O)O)CC[C@]3(C)C(=CC[C@@H]4[C@@]5(C)CC[C@H](O)C(C)(C)[C@@H]5CC[C@]43C)[C@@H]2C1 [compound 2, oleanolic acid]
Human 17β-HSD2
  remaining activity at 20 µM: 49 ± 6%

## COc1cc(-c2cc(=O)c3c(O)c(OC)c(O)cc3o2)ccc1O [compound 5, jaceosidin]
Human 17β-HSD2
  IC50: 9.3 µM and 9.27 µM
Human 17β-HSD2; flavonoid SAR model, Table 4
  classification (17β-HSD2 inhibition): active

## O=C(/C=C/c1ccc(O)cc1)c1ccc(O)cc1O [compound 6, isoliquiritigenin]
Human 17β-HSD2
  IC50: 0.36 ± 0.08 µM

## COc1cc([C@H]2OC[C@H]3[C@@H]2CO[C@@H]3c2ccc(O)c(OC)c2)ccc1O [compound 7, pinoresinol]
Human 17β-HSD2
  remaining activity at 20 µM: 42 ± 5%

## O=c1c2c(O)cc(O)cc2oc2oc3cc(O)ccc3c12 [compound 8, lupinalbin A]
Human 17β-HSD1
  IC50: 0.049 ± 0.019 µM

## O=C(/C=C/c1ccc(O)c(O)c1)c1ccc(O)cc1O [compound 10, butein]
Human 17β-HSD2
  IC50: 7.3 ± 2.7 µM
Human 17β-HSD2; compared with compound 6
  fold less active than 6 (17β-HSD2 IC50): 20 fold

## O=C(/C=C/c1ccc(O)c(O)c1)O[C@H](Cc1ccc(O)c(O)c1)C(=O)O [compound 11, rosmarinic acid]
Human 17β-HSD2
  IC50: 3.72 ± 0.17 µM
Human 17β-HSD1
  17β-HSD1 inhibition (in words; n.i. = no inhibition): n.i. ^a

## CCOC(=O)c1ccc(O)c(OC)c1 [compound 12, ethyl vanillate]
Human 17β-HSD2
  IC50: 1.28 ± 0.26 µM
Human 17β-HSD1
  17β-HSD1 inhibition (in words; n.i. = no inhibition): n.i.

## O=C(Cc1ccc(O)c(Cl)c1)NCCc1ccccc1 [compound 13, 2-(3-chloro-4-hydroxyphenyl)-N-phenethylacetamide]
Human 17β-HSD2
  IC50: 1.57 ± 0.16 µM
Human 17β-HSD1
  17β-HSD1 inhibition (in words; n.i. = no inhibition): n.i.

## COCCNC(=O)Cc1ccc(O)c(Cl)c1 [compound 14, 2-(3-chloro-4-hydroxyphenyl)-N-(2-methoxyethyl)acetamide]
Human 17β-HSD2; [1]
  remaining activity at 20 µM: 37 ± 3%
Human 17β-HSD2
  17β-HSD2 inhibition (in words): moderately active

## CCCCNC(=O)Cc1ccc(O)c(Cl)c1 [compound 15, N-butyl-2-(3-chloro-4-hydroxyphenyl)acetamide]
Human 17β-HSD2; [1]
  remaining activity at 20 µM: 33 ± 6%
Human 17β-HSD2
  17β-HSD2 inhibition (in words): moderately active

## O=C1CC(c2ccccc2)Oc2ccccc21 (stereo not drawn) [compound 19, flavanone]
17β-HSD2
  activity: 70.7 ± 2.6%
  classification (17β-HSD2 inhibition): inactive^24

## O=C1CC(c2ccccc2O)Oc2ccccc21 (stereo not drawn) [compound 20, 2´-hydroxyflavanone]
17β-HSD2
  activity: 50.7 ± 0.5%
  classification (17β-HSD2 inhibition): inactive^24

## O=C1CC(c2ccc(O)cc2)Oc2ccccc21 (stereo not drawn) [compound 21, 4´-hydroxyflavanone]
17β-HSD2
  activity: 63.6 ± 3.5%
  classification (17β-HSD2 inhibition): inactive^24

## O=C1CC(c2ccccc2)Oc2ccc(O)cc21 (stereo not drawn) [compound 22, 6-hydroxyflavanone]
17β-HSD2
  activity: 42.5 ± 1.8%
  classification (17β-HSD2 inhibition): inactive^24

## O=C1C[C@@H](c2ccc(O)cc2)Oc2cc(O)cc(O)c21 [compound 23, naringenin]
17β-HSD2
  classification (17β-HSD2 inhibition): active^24
  IC50: 14.4 ± 4.5 µM

## COc1ccc([C@@H]2CC(=O)c3c(O)cc(O)cc3O2)cc1O [compound 24, hesperetin]
17β-HSD2
  activity: 36.4 ± 1.7%
  classification (17β-HSD2 inhibition): inactive^24

## O=c1cc(-c2ccccc2)oc2ccccc12 [compound 25, flavone]
17β-HSD2
  activity: 63.9 ± 0.6%
  classification (17β-HSD2 inhibition): inactive^24

## O=c1cc(-c2ccccc2)oc2cc(O)ccc12 [compound 26, 7-hydroxyflavone]
17β-HSD2
  activity: 23.1 ± 1.1%
  classification (17β-HSD2 inhibition): weak^24
  IC50: > 20 µM

## O=c1cc(-c2ccccc2)oc2cc(O)cc(O)c12 [compound 27, chrysin]
17β-HSD2
  activity: 32.8 ± 5.1%
  classification (17β-HSD2 inhibition): inactive^24

## O=c1c(-c2ccc(O)cc2)coc2cc(O)ccc12 [compound 28, daidzein]
17β-HSD2
  activity: 58.3 ± 6.1%
  classification (17β-HSD2 inhibition): inactive^24

## O=c1cc(-c2ccc(O)cc2)oc2cc(O)cc(O)c12 [compound 29, apigenin]
17β-HSD2
  activity: 25.2 ± 0.9%
  classification (17β-HSD2 inhibition): weak^24
  IC50: > 20 µM

## O=c1c(O)c(-c2ccc(O)cc2)oc2cc(O)cc(O)c12 [compound 30, kaempferol]
17β-HSD2
  classification (17β-HSD2 inhibition): active^24
  IC50: 0.36 ± 0.04 µM

## O=c1c(O)c(-c2ccc(O)c(O)c2)oc2cc(O)cc(O)c12 [compound 31, quercetin]
17β-HSD2
  classification (17β-HSD2 inhibition): active^24
  IC50: 1.54 ± 0.22 µM

## O=c1c(-c2ccc(O)cc2)coc2cc(O)cc(O)c12 [compound 32, genistein]
17β-HSD2
  classification (17β-HSD2 inhibition): active^24

## COc1ccc(-c2coc3cc(O)cc(O)c3c2=O)cc1 [compound 33, biochanin A]
17β-HSD2
  classification (17β-HSD2 inhibition): active^24
  IC50: 9.9 ± 1.87 µM

## pestalactam A [S13]
Human 17β-HSD2; [1]
  17β-HSD2 remaining activity at 20 μM (% of control): 85 ± 11%
